{"source": "patent US11213512B2", "about": "“Bis-amino acid based compound and use thereof” (THE CURATORS OF THE UNIVERSITY OF MISSOURI, priority 2016, dated 2022)", "key": {"[1]": {"tested_on": "HEK-293 cells", "experiment": "Mammalian cell permeability and vitality, confocal microscopy (propidium iodide / fluorescein diacetate)", "assay_type": "cell-based, human", "settings": "2 hours", "method": "To test the permeability of HEK-293 cells, the cells were cultured in growth medium as described above. HEK-293 (90% confluent) were then seeded in a 96-well plate to get 30,000 cells/well. After 24 hours of incubation at 37° C. and 5% CO2, the spent media was replaced with media (DMEM and 10% FBS) containing compound 2 at either 20 μM or 80 μM. […] Triton X-100 at 0.1%—by volume (1670 μM) and DMSO 0.5% (v/v) were also used as controls. After 2 hours of incubation, spent media was replaced with PBS containing propidium iodide (30 μM) and fluorescein diacetate (60 μM) and incubated at 37° C. and 5% CO2. After 2 hour of incubation, the spend media was replaced with fresh PBS and the cells were observed under Zeiss LSM 700 confocal microscope. The images were reported without any alterations. The gain and the intensity in all the images were kept constant.\nA compound that inhibits bacterial growth and penetrates into the microbe's cytosol may also penetrate into mammalian cells. A similar microscopic study was conducted with the human embryonic kidney (HEK-293) cell line. In this case, only compound 2 was studied. […] The microscopic study was therefore conducted at 20 μM, a value well below any inhibitory concentration, and at 80 μM, a concentration above all three MIC values. The 80 μM concentration was used to confirm the […] of 2 and to establish the lack of serum inhibition."}, "[2]": {"tested_on": "Tet^R E. coli", "experiment": "Membrane permeability and viability, confocal microscopy (propidium iodide / fluorescein diacetate)", "assay_type": "cell-based, Escherichia coli", "settings": "2 at 24 μM, 10 at 6 μM (~½ MIC), 30 min", "method": "To test the membrane permeability of the Tet^R E. coli, the bacteria was first grown overnight from one CFU in media containing 100 μg/mL Ampicillin at 37° C. and 200 RPM. Tet^R E. coli was then knocked back to O.D. 600 nm=0.550 before use. In a sterile test tube, cells were added followed by either compounds 2 or 10 at half-MIC concentrations and incubated at 37° C. and 200 RPM. The concentration of DMSO was kept constant at 0.5% —by volume in each case. After 30 minutes of incubation, the cells were washed by centrifugation at 3000×g for 5 minutes and re-suspended in sterile phosphate buffered saline (PBS). Propidium iodide (30 μM, Thermo-Fischer) and fluorescein diacetate (60 μM, Sigma-Aldrich) were added to the Tet^R E. coli cells in the PBS, mixed by vortexing and incubated at 37° C. and 200 RPM. After 30 minutes, the cells were washed again by centrifugation at 3000×g for 5 minutes. The pellet was suspended in a fresh PBS, loaded onto a clean glass slide, covered with a cover slip and observed under Zeiss LSM 700 confocal microscope.\nThe study was designed to assess the membrane permeability and viability of the E. coli in the presence of BTs 2 and 10. The three panels in FIG. 6 show the bright field (BF) microscopic images (top row), the result when fluorescein diacetate (FDA) is present (middle row), and the presence of propidium iodide (PI, bottom row), if any. […] When it does, it intercalates in DNA, which leads to enhanced fluorescence. Fluorescein diacetate is incorporated into the cells during growth, but is not fluorescent. If the organism is or remains vital, the diester will be hydrolyzed and fluorescein will be observed by its fluorescence emission.\nControls for the permeability/viability assay were included for E. coli in the presence of a final concentration of 0.5% (v/v) DMSO (the vehicle for administration of BTs), and a final concentration of 0.1% […] Triton X-100. […] Thus, less than or equal to 0.5% DMSO (v/v) was always used; the control is shown in the second column. Triton X-100 is a potent detergent, which was used at 0.1% or ˜1,670 μM."}, "[3]": {"experiment": "Aggregate detection by dynamic light scattering", "assay_type": "physicochemical", "settings": "10.(HCl)2 at concentrations between 10 μM and 1 mM", "excerpt": "Amphiphiles are known to enhance the permeability of bacterial boundary layers (Lambert and Hammond, Biochem. Biophys. Res. Commun. 1973, 54, 796-799; and Hancock, Lancet 1997, 349, 418-422). Amphiphiles are also known to form aggregates in aqueous solution. An effort to detect aggregates of 10 was made by using dynamic light scattering (DLS). Compound 10 was deemed to be the most amphiphilic (bola-amphiphilic) of the structures owing to the estimated maximal spacing of the amino groups (Fuhrhop, et al., J. Am. Chem. Soc. 1993, 115, 1600-1601). Solutions of 10.(HCl)2 at concentrations between 10 μM and 1 mM were prepared and examined by dynamic light scattering methods. At the highest concentration, it appeared that some aggregates formed, but the counts were low and the results were considered inconclusive."}, "[4]": {"tested_on": "Staphylcoccus aureus 1199B", "experiment": "Checkerboard combination with norfloxacin or ethidium bromide", "assay_type": "cell-based, Staphylococcus aureus", "settings": "compound at ½ MIC or 2 μM; additive not stated", "method": "Two different strains of E. coli (Gram-negative) were used. The laboratory strain of E. coli, K-12 (ATCC Accession No. 700926), was used for preliminary MIC determinations. The tetracycline resistant strain of E. coli (Tet^R) was prepared by transforming competent JM109 E. coli (Promega) with the pBR322 plasmid (Carolina Biologicals) using the manufacturers protocol. This plasmid contains two resistance genes: the tetA gene expresses the tetracycline resistance TetA efflux pump (Sapunaric and Levy, Microbiol. 2005, 151, 2315-2322) and the amp^R gene expresses a β-lactamase enzyme (Bolivar, et al; Gene 1977, 2, 95-113) that cleaves the four membered ring of penicillin derivatives. The resulting E. coli, which we designate Tet^R E. coli, is both tetracycline and ampicillin resistant. The TetA efflux pump belongs to the major facilitator superfamily (MFS), spans the cytoplasmic membrane, and transports tetracycline from the cell cytoplasm to the periplasmic space (Thanassi, et al., J. Bacteriol. 1995, 177, 998-1007). This active efflux utilizes the proton gradient as an energy source (Levy, Antimicrob. Agents Chemother. 1992, 36, 695-703). […]\nSimilar experiments to those described in Example 7 above were conducted, wherein the antimicrobial activity of various compounds was determined against Staphylcoccus aureus 1199B. […]"}}, "data": [{"smiles": "Cl.Cl.N[C@@H](Cc1c[nH]c2ccccc12)C(=O)Nc1cccc(NC(=O)[C@@H](N)Cc2c[nH]c3ccccc23)c1", "note": "[Compound 2, (2S,2′S)-1,1′-(1,3-Phenylenebis(azanediyl))bis(3-(1H-indol-3-yl)-1-oxopropan-2-aminium) chloride]", "values": [{"measurement": "cellular vitality (FDA fluorescence)", "setting": "[1]; 20 μM", "result": "no loss of vitality"}, {"measurement": "cellular vitality (FDA fluorescence)", "setting": "[1]; 80 μM", "result": "some toxic effect was apparent"}, {"measurement": "viability (fluorescein diacetate fluorescence)", "setting": "[2]", "result": "vital"}]}, {"smiles": "Cl.Cl.N[C@H](Cc1c[nH]c2ccccc12)C(=O)NCCCCCCCCCCCCNC(=O)[C@@H](N)Cc1c[nH]c2ccccc12", "note": "[Compound 10, (S)-1-((12-((R)-2-Ammonio-3-(1H-indol-3-yl)propanamido)dodecyl)amino)-3-(1H-indol-3-yl)-1-oxopropan-2-aminium chloride]", "values": [{"measurement": "aggregate formation in aqueous solution (DLS)", "setting": "[3]", "result": "inconclusive"}, {"measurement": "activity recovered (fold)", "setting": "[4]", "result": 128, "unit": "fold"}, {"measurement": "viability (fluorescein diacetate fluorescence)", "setting": "[2]", "result": "vital"}]}]}
